Measured values taken from patent US20090286831A1, “VR1 Receptor Ligands and u-Opioid Receptor Ligands for the Treatment of Pain” (priority 2006, published 2009).

Legend:
Format in all cases: in vivo, rat
rats [1] = assay: Tail-flick (hot beam) test in rats
rats [2] = assay: Tail-flick (hot beam) test in rats; remark: listed apart in the source
Experimental: (§1) Sprague Dawley rats (140-160 g body weight) were used for the following animal models. Sprague Dawley rats (140-160 g body weight) from a commercial breeder (Janvier, Genest St. Isle, France) were used. The animals were kept under standard conditions: light-dark rhythm (06:00 to 18:00 h light, 18:00 to 06:00 h dark), room temperature 19-23° C., relative air humidity 45-65%, air exchange 19 times per hour, air movement <0.2 m/s, free choice of tap water and standard feed, Macrolon Type 4 cages with 5 animals per cage. The solutions of the test substances and/or vehicles (10% […], 5% Cremophor EL, 5% glucose) were administered intravenously.
The analgesic efficacy of the test compounds was examined in the hot beam (tail flick) test in rats using the method of D'Amour and Smith (J. Pharm. Exp. Ther. 1941, 72, 74-79). The time from switching on the lamp (8V/50 W) to the sudden flicking away of the tail from the hot beam (pain latency) was measured by means of a semiautomatic apparatus (tail-flick Analgesiemeter Type 50/08/1.bc, Labtec, Dr. Hess, Germany). The lamp intensity was adjusted before conducting the experiments so that the time from switching on the lamp to the sudden flicking away of the tail (pain latency) amounted to 3-5 seconds in untreated animals. The lamp was automatically switched off after 12 seconds to avoid tissue damage to the rat's tail. The pain latency was measured 10, 20, 40 and 60 min after intravenous administration. The analgesic effect was determined as increase in pain latency (% MPE) according to the following formula: […]
In this case, T0 is the latency time before and T1 the latency time after substance application, T2 is the maximum exposure time (12 sec). Results of the analgesia study in the tail-flick test in rats:
The following experiments of Example 2 relate to binding studies and the analgesic efficacy of the compounds with dual mode of action according to the invention. The experiments comprise the determination of the (f)Ki value at the TPRV1 receptor, the Ki value at the μ-opioid receptor and the hypothermia assay in mice. The tail-flick test for the compounds [1], [4], [7] and [10] according to the invention was conducted in a similar manner to the above-described method (cf. Example 1, experiment 1).

[3] = system: rats after spinal nerve ligature; assay: Mono-neuropathic pain after spinal nerve ligature (Chung model), electronic von Frey
Experimental: as §1
Under pentobarbital narcosis (Narcoren®, […] i.p., Merial GmbH, Hallbergmoos, Germany), the L5, L6 spinal nerves were firmly bound. The left L5 and L6 spinal nerves were exposed by removing a piece of paravertebral muscle and a portion of the left spinal process of the L5 lumbar vertebral body. The L5 and L6 spinal nerves were carefully isolated and bound with a firm ligature (NC silk, black, USP 5/0, metric 1, Braun Melsungen AG, Melsungen, Germany) (Kim and Chung, An experimental model for peripheral neuropathy produced by segmental spinal nerve ligature in the rat, Pain, 50, 1992, 355-363). After haemostasis was determined, the muscle and adjacent tissue were sutured and the wound closed by metal clamps. After a one-week recovery period the animals were placed in cages with a wire base closed to the top by a plastic hood for measurement of the mechanical allodynia. The animals were kept in this cage until their explorative behaviour had decreased.
The threshold for the tactile allodynia was measured by means of an electronic von Frey anaesthesiometer (Somedic AB, Malmö, Sweden). The animals were randomly divided into groups of 10 animals. Each group received an individual dose of test substance or vehicle and the measurements were conducted 0.5 h before application and at various times after intravenous administration. Both the ipsi- and the contra-lateral rear paw were tested. The median of five stimulations gave a measured data point. The data were determined as % maximum possible effect (% MPE) from the pre-tests of the Chung individual animals (=0% MPE) and the test values of an independent sham control group (=100% MPE). The effect of the test substance and the vehicle was calculated for each measurement time (i.e. 0.5, 1 and 3 h after application) as inter-individual % MPE value. […] The corresponding threshold values are given in gram (mean±SEM).

[4] = AMG-9810 2.15 mg/kg i.v. group, Control (pre-test 0.5 h before application)
[5] = AMG-9810 2.15 mg/kg i.v., 30 min
[6] = AMG-9810 2.15 mg/kg i.v., 60 min
[7] = AMG-9810 2.15 mg/kg i.v., 180 min
[8] = Morphine 1.0 mg/kg i.v. group, Control (pre-test 0.5 h before application)
[9] = Morphine 1.0 mg/kg i.v., 30 min
[10] = Morphine 1.0 mg/kg i.v., 60 min
[11] = Morphine 1.0 mg/kg i.v., 180 min
[12] = Morphine 2.0 mg/kg i.v. group, Control (pre-test 0.5 h before application)
[13] = Morphine 2.0 mg/kg i.v., 30 min
[14] = Morphine 2.0 mg/kg i.v., 60 min
[15] = Morphine 2.0 mg/kg i.v., 180 min

CC(C)(C)c1ccc(/C=C/C(=O)Nc2ccc3c(c2)OCCO3)cc1 [AMG-9810]
% MPE (increase in pain latency), mean (rats [1]; AMG-9810 10 mg/kg i.v., 40 min): 4.38 % MPE | % MPE (increase in pain latency), mean (rats [2]; AMG-9810 10 mg/kg i.v., 10 min): 26.36 % MPE | % MPE (increase in pain latency), mean (rats [2]; AMG-9810 10 mg/kg i.v., 20 min): 11.44 % MPE | % MPE (increase in pain latency), mean (rats [2]; AMG-9810 10 mg/kg i.v., 60 min): −4.06 % MPE | pull-away threshold value, contra-lateral rear paw, mean [3, 4]: 57.79 gram | pull-away threshold value, ipsi-lateral rear paw, mean [3, 4]: 23.23 gram | pull-away threshold value, contra-lateral rear paw, mean [3, 5]: 55.91 gram | pull-away threshold value, ipsi-lateral rear paw, mean [3, 5]: 32.27 gram | pull-away threshold value, contra-lateral rear paw, mean [3, 6]: 52.4 gram | pull-away threshold value, ipsi-lateral rear paw, mean [3, 6]: 31.18 gram | pull-away threshold value, contra-lateral rear paw, mean [3, 7]: 57.38 gram | pull-away threshold value, ipsi-lateral rear paw, mean [3, 7]: 26.94 gram

CN1CC[C@]23c4c5ccc(O)c4O[C@H]2[C@@H](O)C=C[C@H]3[C@H]1C5 [Morphine, morphine]
% MPE (increase in pain latency), mean (rats [1]; Morphine 0.4 mg/kg i.v., 20 min): 23.62 % MPE | % MPE (increase in pain latency), mean (rats [1]; Morphine 0.4 mg/kg i.v., 40 min): 14.1 % MPE | % MPE (increase in pain latency), mean (rats [1]; Morphine 0.8 mg/kg i.v., 10 min): 45.31 % MPE | % MPE (increase in pain latency), mean (rats [1]; Morphine 0.8 mg/kg i.v., 20 min): 45.02 % MPE | % MPE (increase in pain latency), mean (rats [1]; Morphine 0.8 mg/kg i.v., 40 min): 25.86 % MPE | % MPE (increase in pain latency), mean (rats [1]; Morphine 0.8 mg/kg i.v., 60 min): 14.62 % MPE | % MPE (increase in pain latency), mean (rats [2]; Morphine 0.4 mg/kg i.v., 10 min): 26.51 % MPE | % MPE (increase in pain latency), mean (rats [2]; Morphine 0.4 mg/kg i.v., 60 min): 4.23 % MPE | antinociceptive efficacy (conclusion) (rats [2]; combination of two threshold doses of the same opioid): additive antinociceptive efficacy | pull-away threshold value, contra-lateral rear paw, mean [3, 8]: 56.81 gram | pull-away threshold value, ipsi-lateral rear paw, mean [3, 8]: 23.63 gram | pull-away threshold value, contra-lateral rear paw, mean [3, 9]: 67.87 gram | pull-away threshold value, ipsi-lateral rear paw, mean [3, 9]: 32.13 gram | pull-away threshold value, contra-lateral rear paw, mean [3, 10]: 60.95 gram | pull-away threshold value, ipsi-lateral rear paw, mean [3, 10]: 27.65 gram | pull-away threshold value, contra-lateral rear paw, mean [3, 11]: 54.63 gram | pull-away threshold value, ipsi-lateral rear paw, mean [3, 11]: 30.67 gram | pull-away threshold value, contra-lateral rear paw, mean [3, 12]: 58.39 gram | pull-away threshold value, ipsi-lateral rear paw, mean [3, 12]: 24.37 gram | pull-away threshold value, contra-lateral rear paw, mean [3, 13]: 82.83 gram | pull-away threshold value, ipsi-lateral rear paw, mean [3, 13]: 48.44 gram | pull-away threshold value, contra-lateral rear paw, mean [3, 14]: 74.68 gram | pull-away threshold value, ipsi-lateral rear paw, mean [3, 14]: 44.87 gram | pull-away threshold value, contra-lateral rear paw, mean [3, 15]: 59.93 gram | pull-away threshold value, ipsi-lateral rear paw, mean [3, 15]: 39.19 gram | efficacy (conclusion) ([3]; combination of two threshold doses of the same opioid, pull away increased on ipsi- and contra-lateral paw): additive antinociceptive efficacy
